Assay results: US20140296212A1, “SUBSTITUTED PHENOXYPROPYLCYCLOAMINE DERIVATIVES AS HISTAMINE-3 (H3) RECEPTOR LIGANDS” (CEPHALON, INC., priority 2009, published 2014)
Where a name gives a salt, the structure may show the parent alone. Read-outs that look alike come from different tables or passages of the source.

Experiments:
[1] = target: T1, rat histamine H3 receptor (Rattus norvegicus, UniProt Q9QYN8); test: Rat H3 radioligand binding ([3H]-N-alpha-methylhistamine, SPA)
T1 construct: encoding the entire 445-amino-acid rat histamine H3 receptor; expressed in transfected cells
T1 sequence (Q9QYN8 whole entry): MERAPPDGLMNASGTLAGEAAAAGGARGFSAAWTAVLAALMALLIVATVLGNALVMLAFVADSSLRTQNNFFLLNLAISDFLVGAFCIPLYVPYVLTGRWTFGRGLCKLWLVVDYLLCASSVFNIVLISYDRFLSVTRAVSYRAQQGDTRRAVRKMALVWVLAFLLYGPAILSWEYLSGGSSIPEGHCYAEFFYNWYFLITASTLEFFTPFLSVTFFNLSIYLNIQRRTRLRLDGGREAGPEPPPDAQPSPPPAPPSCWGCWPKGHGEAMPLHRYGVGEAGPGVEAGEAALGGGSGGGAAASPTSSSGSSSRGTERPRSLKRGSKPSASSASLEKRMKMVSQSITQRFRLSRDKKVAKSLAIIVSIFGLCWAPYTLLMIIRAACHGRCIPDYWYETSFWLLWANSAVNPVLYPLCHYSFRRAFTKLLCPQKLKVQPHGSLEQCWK
Description: The rat H3 receptor cDNA was PCR amplified from reverse-transcribed RNA pooled from rat thalamus, hypothalamus, striatum and prefrontal cortex with a sequence corresponding to by #338-1672 of Genbank file #NM_053506, encoding the entire 445-amino-acid rat histamine H3 receptor. This was engineered into the pIRES-neo3 mammalian expression vector, which was stably transfected into the CHO-A3 cell line (Euroscreen, Belgium), followed by clonal selection by limiting dilution. Cells were harvested and cell pellets were frozen (−80° C.). Cell pellets were resuspended in 5 mM Tris-HCl, pH 7.5 with 5 nM EDTA and a cocktail of protease inhibitors (Complete Protease Inhibitor Tablets, Roche Diagnostics). Cells were disrupted using a polytron cell homogenizer and the suspension was centrifuged at 1000×g for 10 minutes at 4° C. The pellet was discarded and the supernatant centrifuged at 40,000×g for 30 min at 4° C. This membrane pellet was washed in membrane buffer containing 50 mM Tris-HCl, pH 7.5 with 0.6 mM EDTA, 5 mM MgCl2 and protease inhibitors, recentrifuged as above and the final pellet resuspended in membrane buffer plus 250 mM sucrose and frozen at −80° C.
(§1) Membranes were resuspended in 50 mM Tris HCl (pH 7.4), 5 mM MgCl2, 0.1% BSA. The membrane suspensions (10 μg protein per well) were incubated in a 96 well microtiter plate with [^3H]-N-alpha-methylhistamine (approximately 1 nM final concentration), test compounds at various concentrations (0.01 nM-30 μM) and scintillation proximity beads (Perkin Elmer, FlashBlueGPCR Scintillating Beads) in a final volume of 80 μl for 4 hours at room temperature, protected from light. Non-specific binding was determined in the presence of 10 μM clobenpropit. Radioligand bound to receptor, and therefore in proximity to the scintillation beads, was measured using a MicroBeta scintillation counter.

human H3 receptor = target: T2, human H3 receptor (Homo sapiens, UniProt Q9Y5N1); test: Human H3 radioligand binding ([3H]-N-alpha-methylhistamine, SPA); conditions: membranes of CHO cells expressing human H3
T2 construct: expressed in transfected cells
T2 sequence (Q9Y5N1 whole entry): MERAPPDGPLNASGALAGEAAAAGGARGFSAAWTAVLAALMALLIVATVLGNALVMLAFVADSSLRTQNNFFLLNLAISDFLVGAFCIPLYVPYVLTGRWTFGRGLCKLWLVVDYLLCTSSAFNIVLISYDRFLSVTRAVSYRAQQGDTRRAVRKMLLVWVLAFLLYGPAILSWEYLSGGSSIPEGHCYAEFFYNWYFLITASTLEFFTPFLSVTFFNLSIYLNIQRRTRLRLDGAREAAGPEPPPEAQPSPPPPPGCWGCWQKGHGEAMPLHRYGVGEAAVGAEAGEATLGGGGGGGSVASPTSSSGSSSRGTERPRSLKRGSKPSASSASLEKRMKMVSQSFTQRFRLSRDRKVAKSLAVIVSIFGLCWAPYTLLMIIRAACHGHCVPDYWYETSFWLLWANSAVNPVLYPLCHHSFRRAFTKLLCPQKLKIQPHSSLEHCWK
Description: Cell pellets were resuspended in 5 mM Tris-HCl, pH 7.5 with 5 nM EDTA and a cocktail of protease inhibitors (Complete Protease Inhibitor Tablets, Roche Diagnostics). Cells were disrupted using a polytron cell homogenizer and the suspension was centrifuged at 1000×g for 10 minutes at 4° C. The pellet was discarded and the supernatant centrifuged at 40,000×g for 30 min at 4° C. This membrane pellet was washed in membrane buffer containing 50 mM Tris-HCl, pH 7.5 with 0.6 mM EDTA, 5 mM MgCl2 and protease inhibitors, recentrifuged as above and the final pellet resuspended in membrane buffer plus 250 mM sucrose and frozen at −80° C.
as §1

[2] = membranes of CHO-A3 cells expressing rat H3, [3H]-N-alpha-methylhistamine, read-out: Rat H3 Ki

SMILES | Ki [1, 2] | Ki (human H3 receptor) | melting point | Ki [1]
O=C1CN(CCCOc2ccc(C(=O)CN3CCOCC3)cc2)CCN1 [Example 57, 4-{3-[4-(2-Morpholin-4-yl-acetyl)-phenoxy]-propyl}-piperazin-2-one] | > 1000 nM | > 1000 nM | 230 °C | 
COC[C@@H]1CCCN1CCCOc1ccc(C(=O)CN2CCOCC2)cc1 [Example 76, 1-{4-[3-((S)-2-Methoxymethyl-pyrrolidin-1-yl)-propoxy]-phenyl}-2-morpholin-4-yl-ethanone] | > 1000 nM | > 1000 nM | 74 to 76 °C | 
C[C@@H]1CCCN1CCCOc1ccc(C(=O)CN2CCN(S(C)(=O)=O)CC2)cc1 [Example 66, 2-(4-Methanesulfonyl-piperazin-1-yl)-1-{4-[3-((R)-2-methyl-pyrrolidin-1-yl)-propoxy]-phenyl}-ethanone] | 0.1 to 100 nM | 0.1 to 100 nM | 120 to 126 °C | 
CC(C(=O)c1ccc(OCCCN2CCC[C@H]2C)cc1)N1CCOCC1 (stereo partly drawn) [Example 37, 1-{4-[3-((R)-2-Methyl-pyrrolidin-1-yl)-propoxy]-phenyl}-2-morpholin-4-yl-propan-1-one] |  | 0.1 to 100 nM | 231 °C | 101 to 500 nM
CC(=O)N1CCN(CCCOc2ccc(C(=O)C(C)N3CCOCC3)cc2)CC1 (stereo not shown) [Example 50, 1-{4-[3-(4-Acetyl-piperazin-1-yl)-propoxy]-phenyl}-2-morpholin-4-yl-propan-1-one] |  | > 1000 nM | 240 °C | 
C[C@@H]1CCCN1CCCOc1ccc(C(=O)CN2CCN(c3ccc(F)cc3)CC2)cc1 [Example 94, 2-[4-(4-Fluoro-phenyl)-piperazin-1-yl]-1-{4-[3-((R)-2-methyl-pyrrolidin-1-yl)-propoxy]-phenyl}-ethanone] | 0.1 to 100 nM | 0.1 to 100 nM | 140 to 145 °C | 
C[C@@H]1CCCN1CCCOc1ccc(C(=O)CN2CCN(C(=O)C3CCCO3)CC2)cc1 (stereo partly drawn) [Example 83, 1-{4-[3-((R)-2-Methyl-pyrrolidin-1-yl)-propoxy]-phenyl}-2-[4-(tetrahydro-furan-2-carbonyl)-piperazin-1-yl]-ethanone] | 0.1 to 100 nM | 0.1 to 100 nM | 185 to 190 °C | 
CC(C(=O)c1ccc(OCCCN2CCCCC2)cc1)N1CCCCC1 (stereo not shown) [Example 19, 2-Piperidin-1-yl-1-[4-(3-piperidin-1-yl-propoxy)-phenyl]-propan-1-one] |  | 0.1 to 100 nM | > 240 °C | 
O=C(CN1CCOCC1)c1ccc(OCCCN2Cc3ccccc3C2)cc1 [Example 46, 1-{4-[3-(1,3-Dihydro-isoindol-2-yl)-propoxy)-phenyl}-2-morpholin-4-yl-ethanone] |  | > 1000 nM | 139 to 139.5 °C | 
O=C(CN1CCOCC1)c1ccc(OCCCN2CCN3CCC[C@H]3C2)cc1 [Example 51, 1-{4-[(S)-3-(Hexahydro-pyrrolo[1,2-a]pyrazin-2-yl)-propoxy)-phenyl}-2-morpholin-4-yl-ethanone] |  | > 1000 nM | 238 °C | 
CC(C)N1CCC(Oc2ccc(C(=O)CN3CCOCC3)cc2)CC1 (as salt: hydrochloride) [Example 45, 1-[4-(1-Isopropyl-piperidin-4-yloxy)-phenyl]-2-morpholin-4-yl-ethanone] |  |  | 296 to 298 °C | 
CC(=O)N1CCN(CCCOc2ccc(C(=O)CN3CCOCC3)cc2)CC1 [Example 49, 1-{4-[3-(4-Acetyl-piperazin-1-yl)-propoxy]-phenyl}-2-morpholin-4-yl-ethanone] |  | > 1000 nM | 247 °C | 
CC(C(=O)c1ccc(OCCCN2CCC[C@@H]2C)cc1)N1CCCCC1 (stereo partly drawn) [Example 20, 1-{4-[3-((S)-2-Methyl-pyrrolidin-1-yl)-propoxy]-phenyl}-2-piperidin-1-yl-propan-1-one] |  | 0.1 to 100 nM | > 230 °C | 
CC(C(=O)c1ccc(OCCCN2CCOCC2)cc1)N1CCOCC1 (stereo not shown) [Example 48, 2-Morpholin-4-yl-1-[4-(3-morpholin-4-yl-propoxy)-phenyl]-propan-1-one] |  | > 1000 nM | 258 °C | 
CC(C(=O)c1ccc(OCCCN2CCC(F)(F)C2)cc1)N1CCOCC1 (stereo not shown) [Example 56, 1-{4-[3-(3,3-Difluoro-pyrrolidin-1-yl)-propoxy]-phenyl}-2-morpholin-4-yl-propan-1-one] |  | > 1000 nM | 254 °C | 
C[C@@H]1CCCN1CCCOc1ccc(C(=O)C(C)(C)N2CCOCC2)cc1 (as salt: fumaric acid salt) [Example 54] |  |  | 45 to 50 °C | 
O=C(CN1CCOCC1)c1ccc(OCCCN2CCCC2)cc1 [Example 15, 2-Morpholin-4-yl-1-[4-(3-pyrrolidin-1-yl-propoxy)-phenyl]-ethanone] | 501 to 1000 nM | 101 to 500 nM |  | 

More lines, main results first:

Ki [1, 2] | Ki (human H3 receptor) | melting point | SMILES | Ki [1]
0.1 to 100 nM | 0.1 to 100 nM | 161 to 166.5 °C | Cc1cc(C(=O)CN2CCN(C(=O)C3CCCCC3)CC2)ccc1OCCCN1CCC[C@H]1C [Example 148, 2-(4-Cyclohexanecarbonyl-piperazin-1-yl)-1-{3-methyl-4-[3-((R)-2-methyl-pyrrolidin-1-yl)-propoxy]-phenyl}-ethanone] | 
0.1 to 100 nM | 0.1 to 100 nM | 65 to 70 °C | CCC(=O)N1CCN(CC(=O)c2ccc(OCCCN3CCC[C@H]3C)cc2)CC1 [Example 144, 1-[4-(2-{4-[3-((R)-2-Methyl-pyrrolidin-1-yl)-propoxy]-phenyl}-2-oxo-ethyl)-piperazin-1-yl]-propan-1-one] | 
0.1 to 100 nM | 0.1 to 100 nM | 137 to 150 °C | C[C@@H]1CCCN1CCCOc1ccc(C(=O)CN2CCN(C(=O)c3cccc(Cl)c3Cl)CC2)cc1 [Example 157, 2-[4-(2,3-Dichloro-benzoyl)-piperazin-1-yl]-1-{4-[3-((R)-2-methyl-pyrrolidin-1-yl)-propoxy]-phenyl}-ethanone] | 
101 to 500 nM | 0.1 to 100 nM | 220 °C | C[C@@H]1CCCN1CCCOc1ccc(C(=O)CN2CCC(F)(F)CC2)cc1F [Example 141, 2-(4,4-Difluoro-piperidin-1-yl)-1-{3-fluoro-4-[3-((R)-2-methyl-pyrrolidin-1-yl)-propoxy]-phenyl}-ethanone] | 
0.1 to 100 nM | 0.1 to 100 nM | 115 to 120 °C | C[C@@H]1CCCN1CCCOc1ccc(C(=O)CN2CCN(C)C(=O)C2)cc1 [Example 155, 1-Methyl-4-(2-{4-[3-((R)-2-methyl-pyrrolidin-1-yl)-propoxy]-phenyl}-2-oxo-ethyl)-piperazin-2-one] | 
 |  | 222 to 224 °C | CC(C)OC(=O)N1CCN(CC(=O)c2ccc(OCCCN3CCC[C@H]3C)cc2)CC1 [Example 158, 4-(2-{4-[3-((R)-2-Methyl-pyrrolidin-1-yl)-propoxy]-phenyl}-2-oxo-ethyl)-piperazine-1-carboxylic acid isopropyl ester] | 
> 1000 nM | 101 to 500 nM | 140 to 142 °C | Cc1cc(C(=O)CN2CCC(F)(F)CC2)cc(C)c1OCCCN1CCC[C@H]1C [Example 95, 2-(4,4-Difluoro-piperidin-1-yl)-1-{3,5-dimethyl-4-[3-((R)-2-methyl-pyrrolidin-1-yl)-propoxy]-phenyl}-ethanone] | 
 |  | 98 to 101 °C | C[C@@H]1CCCN1CCCOc1ccc(C(=O)CN2CCN(C(=O)c3ccccc3)CC2)c(F)c1 (as salt: fumaric acid salt) [Example 103, 2-(4-Benzoyl-piperazin-1-yl)-1-{2-fluoro-4-[3-((R)-2-methyl-pyrrolidin-1-yl)-propoxy]-phenyl}-ethanone] | 
0.1 to 100 nM | 0.1 to 100 nM |  | Cc1cc(C(=O)CN2CCN(C(=O)c3ccccc3)CC2)ccc1OCCCN1CCC[C@H]1C [Example 107, 2-(4-Benzoyl-piperazin-1-yl)-1-{3-methyl-4-[3-((R)-2-methyl-pyrrolidin-1-yl)-propoxy]-phenyl}-ethanone] | 
101 to 500 nM | 0.1 to 100 nM |  | C[C@@H]1CCCN1CCCOc1ccc(/C(CN2CCOC(c3ccccc3)C2)=N/OC(C)(C)C)cc1 (stereo partly shown) [Example 168] | 
101 to 500 nM | 0.1 to 100 nM |  | Cc1cc(C(=O)CN2CCC(F)(F)CC2)ccc1OCCCN1CCC[C@H]1C [Example 136, 2-(4,4-Difluoro-piperidin-1-yl)-1-{3-methyl-4-[3-((R)-2-methyl-pyrrolidin-1-yl)-propoxy]-phenyl}-ethanone] | 
